Assays:
[1] = Association (partition) of the NBD amphiphiles with native membranes, NBD fluorescence; format: physicochemical, High-Five insect cells; conditions: for LogKP, association with the native membranes: 37 °C, simplified ATPase assay buffer; for KPW→M: aqueous phase to native membrane
Method: The membranes were diluted to the chosen concentration with simplified ATPase assay buffer and warmed to 37 °C. The NBD amphiphiles were added from stocks in DMSO (final DMSO 1% v/v) by squirting the required volume into the membrane solution under gentle vortex. Fluorescence intensity was measured after 15 to 30 min incubation at 37 °C using a Cary Eclipse spectrofluorimeter (Varian, Singapore). The path length of the sample container was selected to guarantee that scattering at the excitation wavelength was smaller than 0.1 while maintaining a good signal/noise ratio (3, 5, or 10 mm).
The increase in fluorescence of the NBD amphiphiles when associated with the model membranes was well described by a simple partition (Equation (S3)). The low affinity of the less lipophilic amphiphiles for the native membranes required the use of high membrane concentrations, and the fluorescence was measured with the plate reader SpectraMax iD5 (Molecular Devices, Berkshire, UK), where the reading setup is not very sensitive to scatter. To guarantee that the high scatter intensity was not leading to artifacts in the measured fluorescence intensity of NBD–C4, titrations of NBD-C6 and NBD–C8 were also performed in the same plate. For these two latter amphiphiles, the results obtained for the partition coefficient were similar to those obtained for experiments with low scatter intensity. A small decrease in the fluorescence intensity from NBD–C8 was nevertheless observed at very high scatter intensities (OD ≥ 0.5), which was used to correct the signal from the less lipophilic amphiphiles, see Supplementary Information (Figure S5 and Equation (S4)). The molar volume considered for the lipid was 0.8 dm^3/mol, and 1.2 g/mL was considered for the density of the membrane proteins.
S3 – Partition of the NBD amphiphiles to lipid bilayers and native membranes The fluorescence increase that accompanies the association of the NBD amphiphiles with the model membra nes was well defined by a simple partition, equation S3. […]
where IfW and If M are respec ti vel y the fluorescence intensity when all fluorescent amphiphile is in the aqueous phase and ass oci ated with the membranes, LbK is the partition co eff icient P between the aqueous and the lipid bilayer, V is the molar vo l u m e of the lipid when in the lipid L bi l ayer, and [L] is the lipid concentration.
To characterize the association of the NBD amphiphiles with the native membranes the whole membrane vo lume was considere d, including the lipid bilayer and the membrane proteins. For the ca se of the less lipophilic amphiphiles NBD‐C4 and NBD‐C6, a sig nif ica nt scatter from the […]
both to the larger size of the vesicles (ca 1 µm diameter, [1]) and to the high refractive index of the native membranes. The magnitude of the scatter effect was quantified through the best fit […]
partition to the membranes at co n ce ntrations where scatter is not significant. The modified […]
where s is the scatter correction factor for a given concentration of native membranes, If W and IfM are respectively the fluorescence intensity when all fluorescent amphiphile is in the aqueous phase and associated with the membranes, WMK → is the partition coefficient between the P aqueous phase and the native membrane, V is the molar volume of the lipid when in the L membrane and [L] the molar concentration of the membrane lipids, V is the vo lume occupied P by 1 g of membrane protein (assuming a density of 1.2 g/mL) and [P] is the protein concentration in units of ma ss per volume.
Typical results obtained for the variation of the fluorescence intensity at 540 nm of the NBD‐Cn fluorophores equilibrated with increasing concentrations of native membranes, are shown in figure S3. The fluorescence intensity was measured in black 96 well plates with the plate reader […]
SpectraMax iD5. The NBD‐Cn concentrations we re 0.5 µM for NBD‐C8 , 1 µM for NBD‐C6, and 2 µM for NBD‐C4, and the total volume per well was 150 µL. […]

[2] = cited from earlier work; for critical aggregation concentration (CAC): 25 °C, aqueous; for increase of CAC in the presence of co-solvent: e.g. 1 M trehalose
mouse P–gp (mP–gp) = biological target: T1, mouse P–gp (mP–gp) (Mus musculus, UniProt P21447); experiment: P–gp ATPase activity (vanadate-sensitive, end point Pi release) in native membranes; format: biochemical; conditions: Equation (S1), total modulator concentration; only activation for NBD–C4; constraint K1≤K2 for NBD–C8 and NBD–LysoMPE; [75% confidence interval]; read-out: K1, dissociation constant for P–gp activation
T1 construct: made in house; host or cells: High-Five insect cells (Invitrogen), recombinant baculovirus; total membrane vesicles
T1 sequence (P21447 whole entry): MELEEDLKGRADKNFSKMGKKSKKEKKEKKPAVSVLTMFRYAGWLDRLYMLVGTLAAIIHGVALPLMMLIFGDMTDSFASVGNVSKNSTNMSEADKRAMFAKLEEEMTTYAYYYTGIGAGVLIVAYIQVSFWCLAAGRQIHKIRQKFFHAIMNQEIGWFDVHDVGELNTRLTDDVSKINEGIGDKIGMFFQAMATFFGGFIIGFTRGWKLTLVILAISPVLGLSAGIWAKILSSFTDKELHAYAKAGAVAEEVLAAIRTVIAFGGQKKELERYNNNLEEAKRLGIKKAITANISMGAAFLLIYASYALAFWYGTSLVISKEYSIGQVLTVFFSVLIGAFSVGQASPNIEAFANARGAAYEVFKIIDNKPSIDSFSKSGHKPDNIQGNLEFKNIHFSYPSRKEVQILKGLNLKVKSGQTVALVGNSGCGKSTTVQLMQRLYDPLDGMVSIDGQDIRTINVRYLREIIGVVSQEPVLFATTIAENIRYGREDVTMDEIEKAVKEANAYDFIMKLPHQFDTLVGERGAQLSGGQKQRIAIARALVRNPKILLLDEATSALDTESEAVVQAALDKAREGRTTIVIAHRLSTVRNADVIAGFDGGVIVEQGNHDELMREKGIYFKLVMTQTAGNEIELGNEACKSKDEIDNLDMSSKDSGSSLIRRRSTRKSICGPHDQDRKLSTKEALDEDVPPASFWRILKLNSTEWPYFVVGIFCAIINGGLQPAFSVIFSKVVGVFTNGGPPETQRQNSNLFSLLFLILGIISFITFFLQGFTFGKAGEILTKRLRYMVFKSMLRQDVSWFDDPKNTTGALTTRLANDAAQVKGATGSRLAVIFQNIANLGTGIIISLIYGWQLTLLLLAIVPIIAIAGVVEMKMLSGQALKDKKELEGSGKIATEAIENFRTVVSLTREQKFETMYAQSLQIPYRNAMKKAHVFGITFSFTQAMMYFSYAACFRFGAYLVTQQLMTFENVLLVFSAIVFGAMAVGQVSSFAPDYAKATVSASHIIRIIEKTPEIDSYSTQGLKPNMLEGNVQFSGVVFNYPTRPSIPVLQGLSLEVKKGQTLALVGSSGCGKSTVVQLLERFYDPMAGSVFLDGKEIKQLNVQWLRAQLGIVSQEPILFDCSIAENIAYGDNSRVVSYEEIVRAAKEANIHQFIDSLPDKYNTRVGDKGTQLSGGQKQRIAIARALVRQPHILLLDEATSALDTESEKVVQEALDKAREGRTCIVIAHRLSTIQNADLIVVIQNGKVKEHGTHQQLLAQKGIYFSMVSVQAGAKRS

[3] = membrane volume = phospholipid bilayer and P–gp (binding to the protein P–gp only)
[4] = membrane volume = phospholipid bilayer and all proteins (binding to all membrane proteins with equal affinity)

Structure (SMILES) | LogKP, association with the native membranes [1] | critical aggregation concentration (CAC) [2] | Kd (mouse P–gp (mP–gp)) | KPW→M [1, 3] | KPW→M [1, 4] | increase of CAC in the presence of co-solvent [2]
CCCCCCCCCCCCCC(=O)OCC(O)COP(=O)(O)OCCNc1ccc([N+](=O)[O-])c2nonc12 (stereo not drawn) [NBD–LysoMPE] | 4.34 ± 0.25 | 4 µM | 13 µM |  |  | 
CCCCNc1ccc([N+](=O)[O-])c2nonc12 [NBD–C4] | 2.75 ± 0.20 | 250 µM | 84 µM | 1.4 × 10^3 | 5.7 × 10^2 | not significantly affected
CCCCCCCCNc1ccc([N+](=O)[O-])c2nonc12 [NBD–C8] | 3.95 ± 0.14 | 1 µM | 17 µM | 2.2 × 10^4 | 9.0 × 10^3 | 4 fold
